From patent US20090036444A1, “5-5-Membered fused heterocyclic compound and use thereof as HCV polymerase inhibitor” (priority 2003, published 2009)
Structures can show the parent of a compound that is named as a salt. Where two headings read alike, the source gives them in different places.

Legend:
[1] = target: T1, HCV polymerase H544 1a 3X (UniProt P27958); assay: Assay of enzyme (HCV polymerase) inhibitory activity, H544 1a 3X; assay type: biochemical
T1 construct: fused on or other part: 6 His tag at the C-terminus, for the BK (1b) enzyme

[2] = target: T2, HCV polymerase H544 1b 3X (Hepatitis C virus genotype 1b, UniProt P26663); assay: Assay of enzyme (HCV polymerase) inhibitory activity, H544 1b 3X; assay type: biochemical, HCV BK strain
T2 construct: a region encoding NS5B (J Virol 1991 March, 65(3), 1105-13, 544 amino acids after deletion of 47 amino acids on the C-terminal); 6 His (C); made in house; host or cells: Escherichia coli
Text: The evaluation of the HCV polymerase inhibitory activity of the compound of the present invention is explained in the following. This polymerase is an enzyme coded for by the non-structural protein region called NS5B on the genome RNA of HCV (EMBO J., 15:12-22, 1996).
Using, as a template, a cDNA clone corresponding to the full length genome RNA of HCV BK strain obtained from the blood of a patient with hepatitis C, a region encoding NS5B (J Virol 1991 March, 65(3), 1105-13, 544 amino acids after deletion of 47 amino acids on the C-terminal) was amplified by PCR. The objective gene was prepared by adding a 6 His tag {base pair encoding 6 continuous histidine (His)} to the 3′ end thereof and transformed to Escherichia coli. The Escherichia coli capable of producing the objective protein was cultured. The obtained cells were suspended in a buffer solution and crushed in a microfluidizer. The supernatant was obtained by centrifugation and applied to various column chromatographys {mono-S, Sephacryl S-200 (Pharmacia)}, inclusive of metal chelate chromatography, to give a standard enzyme product.
Using a synthetic primer designed based on the sequence of HCV genomic 3′ untranslated region, a DNA fragment (148 bp) containing polyU and 3′X sequence was entirely synthesized and cloned into plasmid pBluescript SK II (+) (Stratagene). The cDNA encoding full length NS5B, which was prepared in i) above, was digested with restriction enzyme KpnI to give a cDNA fragment containing the nucleotide sequence of from the restriction enzyme cleavage site to the termination codon. This cDNA fragment was inserted into the upstream of 3′ untranslated region of the DNA in pBluescript SK II(+) and ligated. The about 450 bp inserted DNA sequence was used as a template in the preparation of substrate RNA. This plasmid was cleaved immediately after the 3′X sequence, linearized and purified by phenol-chloroform treatment and ethanol precipitation to give DNA.
RNA was synthesized (37° C., 3 hr) by run-off method using this purified DNA as a template, a promoter of pBluescript SK II(+), MEGAscript RNA synthesis kit (Ambion) and T7 RNA polymerase. DNase I was added and the mixture was incubated for 1 hr. The template DNA was removed by decomposition to give a crude RNA product. This crude product was treated with phenol-chloroform and purified by ethanol precipitation to give the objective substrate RNA.
This RNA was applied to formaldehyde denaturation agarose gel electrophoresis to confirm the quality thereof and preserved at −80° C.
A test substance (compound of the present invention) and a reaction mixture (30 μl) having the following composition were reacted at 25° C. for 90 min. 10% Trichloroacetic acid at 4° C. and 1% sodium pyrophosphate solution (150 μl) were added to this reaction mixture to stop the reaction. The reaction mixture was left standing in ice for 15 min to insolubilize RNA. This RNA was trapped on a glass filter (Whatman GF/C and the like) upon filtration by suction. This filter was washed with a solution containing 1% trichloroacetic acid and 0.1% sodium pyrophosphate, washed with 90% ethanol and dried. A liquid scintillation cocktail (Packard) was added and the radioactivity of RNA synthesized by the enzyme reaction was measured on a liquid scintillation counter.
The HCV polymerase inhibitory activity (IC50) of the compound of the present invention was calculated from the values of radioactivity of the enzyme reaction with and without the test substance.
The results are shown in Table 18, wherein each symbol means that IC50 falls within the following range.
Reaction mixture: HCV polymerase (0.5 μg/ml) obtained in i), substrate RNA (5 μg/ml) obtained in ii), ATP (50 μM), GTP (50 μM), CTP (50 μM), UTP (2 μM), [5,6-^3H] UTP (46 Ci/mmol (Amersham), 1 μCi) 20 mM Tris-HCl (pH 7.5), EDTA (1 mM), MgCl2 (5 mM), NaCl (50 mM), DTT (1 mM), BSA (0.01%)

[3] = 25° C., 90 min, [5,6-3H]UTP incorporation, read-out: H544 1a 3X IC50
[4] = read-out: H544 1a 3X IC50, 25° C., 90 min, [5,6-3H]UTP incorporation

T2 sequence (P26663 2420-2963): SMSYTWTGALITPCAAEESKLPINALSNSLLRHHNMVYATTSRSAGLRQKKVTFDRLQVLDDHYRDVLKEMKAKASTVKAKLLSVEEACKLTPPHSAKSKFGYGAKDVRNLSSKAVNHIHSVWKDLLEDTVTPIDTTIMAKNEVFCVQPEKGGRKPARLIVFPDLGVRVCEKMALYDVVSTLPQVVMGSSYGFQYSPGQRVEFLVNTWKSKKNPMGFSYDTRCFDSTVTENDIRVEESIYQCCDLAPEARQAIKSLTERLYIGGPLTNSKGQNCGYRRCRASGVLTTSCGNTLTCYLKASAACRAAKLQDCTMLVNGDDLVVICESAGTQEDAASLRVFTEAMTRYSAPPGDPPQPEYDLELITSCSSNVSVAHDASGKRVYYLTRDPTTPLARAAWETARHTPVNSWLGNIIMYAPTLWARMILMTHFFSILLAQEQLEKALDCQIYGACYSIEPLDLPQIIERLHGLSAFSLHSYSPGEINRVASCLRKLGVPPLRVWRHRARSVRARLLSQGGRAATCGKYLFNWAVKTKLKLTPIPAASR

Row | Compound | IC50 [1, 3] [µM] | IC50 [2] [µM] | IC50 [1, 4] [µM]
1 | O=C(O)c1cc2c(s1)c(C1CCCCC1)c(-c1ccc(OCc3ccccc3)cc1)n2CC(=O)N1CCC(N2CCCCC2)CC1 [Example 54, 5-(4-benzyloxyphenyl)-4-[2-(1,4′-bipiperidinyl-1′-yl)-2-oxoethyl]-6-cyclohexyl-4H-thieno[3,2-b]pyrrole-2-carboxylic acid hydrochloride] | < 0.1 | < 0.1 | 
2 | Cn1c(-c2ccc(OCc3cc(NC(=O)CN4CCOCC4)ccc3N3CCOCC3)cc2)c(C2CCCCC2)c2sc(C(=O)O)cc21 [Example 41, 6-cyclohexyl-4-methyl-5-{4-[2-morpholino-5-(2-morpholinoacetylamino)benzyloxy]phenyl}-4H-thieno[3,2-b]pyrrole-2-carboxylic acid dihydrochloride] |  | < 0.1 | < 0.1
3 | COCCn1c(-c2ccc(OCc3ccccc3)cc2)c(C2CCCCC2)c2sc(C(=O)O)cc21 [Example 49, 5-(4-benzyloxyphenyl)-6-cyclohexyl-4-(2-methoxyethyl)-4H-thieno[3,2-b]pyrrole-2-carboxylic acid] | 0.1 to 1 | 0.1 to 1 | 
4 | CCOC(=O)c1cc2c(s1)c(C1CCCCC1)c(-c1ccc(OCc3cc(N4CCCC4=O)ccc3N3CCOCC3)cc1)n2C [Example 24, ethyl 6-cyclohexyl-4-methyl-5-{4-[2-morpholino-5-(2-oxopyrrolidin-1-yl)benzyloxy]phenyl}-4H-thieno[3,2-b]pyrrole-2-carboxylate hydrochloride] | 0.1 to 1 | 0.1 to 1 | 
5 | O=C(O)c1cc2c(s1)c(C1CCCCC1)c(-c1ccc(OCc3ccccc3)cc1)n2CCN1CCN(C2CCCCC2)CC1 [Example 53, 5-(4-benzyloxyphenyl)-6-cyclohexyl-4-[2-(4-cyclohexylpiperazin-1-yl)ethyl]-4H-thieno[3,2-b]pyrrole-2-carboxylic acid dihydrochloride] |  | 0.1 to 1 | 0.1 to 1
6 | Cn1c(-c2ccc(OCc3cc(N4CCCC4=O)ccc3N3CCOCC3)cc2)c(C2CCCCC2)c2sc(C(=O)O)cc21 [Example 15, 6-cyclohexyl-4-methyl-5-{4-[2-morpholino-5-(2-oxopyrrolidin-1-yl)benzyloxy]phenyl}-4H-thieno[3,2-b]pyrrole-2-carboxylic acid hydrochloride] | < 0.1 | < 0.1 | 
7 | CN(C)C(=O)Cn1c(-c2ccc(OC3CCN(C(=O)OC(C)(C)C)CC3)cc2)c(C2CCCCC2)c2sc(C(=O)O)cc21 [Example 39, 5-[4-(1-tert-butoxycarbonylpiperidin-4-yloxy)phenyl]-6-cyclohexyl-4-dimethylcarbamoylmethyl-4H-thieno[3,2-b]pyrrole-2-carboxylic acid] | 0.1 to 1 | < 0.1 | 
8 | CC(C)C(=O)N(C)c1ccc(N2CCOCC2)c(COc2ccc(-c3c(C4CCCCC4)c4sc(C(=O)O)cc4n3C)cc2)c1 [Example 30, 6-cyclohexyl-5-{4-[5-(N-isobutyryl-N-methylamino)-2-morpholinobenzyloxy]phenyl}-4-methyl-4H-thieno[3,2-b]pyrrole-2-carboxylic acid hydrochloride] | < 0.1 | < 0.1 | 
9 | O=C(O)c1cc2c(s1)c(C1CCCCC1)c(-c1ccc(OCc3ccccc3)cc1)n2CCN1CCOCC1 [Example 47, 5-(4-benzyloxyphenyl)-6-cyclohexyl-4-(2-morpholinoethyl)-4H-thieno[3,2-b]pyrrole-2-carboxylic acid] | 0.1 to 1 | 0.1 to 1 | 
10 | COc1ccc(-c2c(C3CCCCC3)c3sc(C(=O)O)cc3n2CC(=O)N2CCOCC2)cc1 [Example 25, 6-cyclohexyl-5-(4-methoxyphenyl)-4-morpholinocarbonylmethyl-4H-thieno[3,2-b]pyrrole-2-carboxylic acid] | 0.1 to 1 | < 0.1 | 
11 | CC(C)C(=O)Nc1ccc(N2CCOCC2)c(COc2ccc(-c3c(C4CCCCC4)c4sc(C(=O)O)cc4n3C)cc2)c1 [Example 29, 6-cyclohexyl-5-[4-(5-isobutyrylamino-2-morpholinobenzyloxy)phenyl]-4-methyl-4H-thieno[3,2-b]pyrrole-2-carboxylic acid hydrochloride] | < 0.1 | < 0.1 | 
12 | CN(C)C(=O)Cn1c(-c2ccccc2OCc2ccccc2)c(C2CCCCC2)c2sc(C(=O)O)cc21 [Example 36, 5-(2-benzyloxyphenyl)-6-cyclohexyl-4-dimethylcarbamoylmethyl-4H-thieno[3,2-b]pyrrole-2-carboxylic acid] | 0.1 to 1 | 0.1 to 1 | 
13 | Cn1c(-c2ccc(OCc3cc(N4CCCC4=O)ccc3N3CCN(S(C)(=O)=O)CC3)cc2)c(C2CCCCC2)c2sc(C(=O)O)cc21 [Example 18, 6-cyclohexyl-5-{4-[2-(4-methanesulfonylpiperazin-1-yl)-5-(2-oxopyrrolidin-1-yl)benzyloxy]phenyl}-4-methyl-4H-thieno[3,2-b]pyrrole-2-carboxylic acid hydrochloride] | < 0.1 | < 0.1 | 
14 | Cn1c(-c2ccc(OCc3ccc(N4CCCC4=O)cc3N3CCOCC3)cc2)c(C2CCCCC2)c2sc(C(=O)O)cc21 [Example 34, 6-cyclohexyl-4-methyl-5-{4-[2-morpholino-4-(2-oxopyrrolidin-1-yl)benzyloxy]phenyl}-4H-thieno[3,2-b]pyrrole-2-carboxylic acid hydrochloride] | < 0.1 | < 0.1 | 
15 | CN(C)CC(=O)Nc1ccc(N2CCOCC2)c(COc2ccc(-c3c(C4CCCCC4)c4sc(C(=O)O)cc4n3C)cc2)c1 [Example 40, 6-cyclohexyl-5-{4-[5-(2-dimethylaminoacetylamino)-2-morpholinobenzyloxy]phenyl}-4-methyl-4H-thieno[3,2-b]pyrrole-2-carboxylic acid dihydrochloride] |  | < 0.1 | < 0.1
16 | CN(C)CCn1c(-c2ccc(OCc3ccccc3)cc2)c(C2CCCCC2)c2sc(C(=O)O)cc21 [Example 46, 5-(4-benzyloxyphenyl)-6-cyclohexyl-4-(2-dimethylaminoethyl)-4H-thieno[3,2-b]pyrrole-2-carboxylic acid] | 0.1 to 1 | 0.1 to 1 | 
17 | O=C(O)c1cc2c(s1)c(C1CCCCC1)c(-c1ccc(OCc3ccccc3)cc1)n2CCN1CCC(N2CCCCC2)CC1 [Example 55, 5-(4-benzyloxyphenyl)-4-[2-(1,4′-bipiperidinyl-1′-yl)ethyl]-6-cyclohexyl-4H-thieno[3,2-b]pyrrole-2-carboxylic acid dihydrochloride] | 0.1 to 1 | 0.1 to 1 | 
18 | O=C(O)c1cc2c(s1)c(C1CCCCC1)c(-c1ccc(OCc3ccccc3)cc1)n2CC(=O)N1CCN(C2CCCCC2)CC1 [Example 52, 5-(4-benzyloxyphenyl)-6-cyclohexyl-4-[2-(4-cyclohexylpiperazin-1-yl)-2-oxoethyl]-4H-thieno[3,2-b]pyrrole-2-carboxylic acid hydrochloride] | < 0.1 | < 0.1 | 
19 | CC(=O)N(C)c1ccc(N2CCOCC2)c(COc2ccc(-c3c(C4CCCCC4)c4sc(C(=O)O)cc4n3C)cc2)c1 [Example 17, 5-{4-[5-(N-acetyl-N-methylamino)-2-morpholinobenzyloxy]phenyl}-6-cyclohexyl-4-methyl-4H-thieno[3,2-b]pyrrole-2-carboxylic acid hydrochloride] |  | < 0.1 | < 0.1
